Results taken from PMC3281519 (Journal of Medicinal Chemistry, 2011).
Values belong to the molecule of their own block, whether it stands above or below them.

Columns and labels:
recombinant human sEH = biological target: T1, recombinant human sEH (Homo sapiens, UniProt P34913); assay: sEH IC50 kinetic fluorescent assay; format: biochemical
T1 sequence (P34913 1-555): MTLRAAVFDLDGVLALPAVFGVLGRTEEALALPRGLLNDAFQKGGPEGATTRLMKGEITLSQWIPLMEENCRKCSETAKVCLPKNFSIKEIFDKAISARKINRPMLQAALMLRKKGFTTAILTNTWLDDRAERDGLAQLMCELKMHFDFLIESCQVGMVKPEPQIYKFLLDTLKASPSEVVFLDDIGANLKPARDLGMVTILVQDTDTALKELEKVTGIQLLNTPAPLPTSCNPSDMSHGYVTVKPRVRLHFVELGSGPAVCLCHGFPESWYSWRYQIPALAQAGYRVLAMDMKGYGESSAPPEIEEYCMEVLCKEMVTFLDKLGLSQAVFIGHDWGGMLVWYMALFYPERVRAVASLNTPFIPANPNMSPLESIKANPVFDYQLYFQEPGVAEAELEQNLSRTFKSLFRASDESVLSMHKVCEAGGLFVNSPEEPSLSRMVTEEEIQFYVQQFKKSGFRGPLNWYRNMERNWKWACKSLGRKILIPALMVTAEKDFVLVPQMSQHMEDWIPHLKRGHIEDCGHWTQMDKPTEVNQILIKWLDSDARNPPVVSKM

[1] = Pharmacokinetics after oral administration in rats; format: in vivo; details: rat; compared with 21j
Sprague-Dawley rats = format: in vivo; details: rats treated at 10 mg/kg s.c., observed over nine hours
U937 cell line = assay: Acute toxicity on U937 cell line; format: cell-based; details: U937 cells
human recombinant COX-2 = biological target: T2, human recombinant COX-2 (Homo sapiens, UniProt P35354); assay: COX Fluorescent Inhibitor Screening Assay, COX-2; details: compared to compound 21b
T2 sequence (P35354 18-604): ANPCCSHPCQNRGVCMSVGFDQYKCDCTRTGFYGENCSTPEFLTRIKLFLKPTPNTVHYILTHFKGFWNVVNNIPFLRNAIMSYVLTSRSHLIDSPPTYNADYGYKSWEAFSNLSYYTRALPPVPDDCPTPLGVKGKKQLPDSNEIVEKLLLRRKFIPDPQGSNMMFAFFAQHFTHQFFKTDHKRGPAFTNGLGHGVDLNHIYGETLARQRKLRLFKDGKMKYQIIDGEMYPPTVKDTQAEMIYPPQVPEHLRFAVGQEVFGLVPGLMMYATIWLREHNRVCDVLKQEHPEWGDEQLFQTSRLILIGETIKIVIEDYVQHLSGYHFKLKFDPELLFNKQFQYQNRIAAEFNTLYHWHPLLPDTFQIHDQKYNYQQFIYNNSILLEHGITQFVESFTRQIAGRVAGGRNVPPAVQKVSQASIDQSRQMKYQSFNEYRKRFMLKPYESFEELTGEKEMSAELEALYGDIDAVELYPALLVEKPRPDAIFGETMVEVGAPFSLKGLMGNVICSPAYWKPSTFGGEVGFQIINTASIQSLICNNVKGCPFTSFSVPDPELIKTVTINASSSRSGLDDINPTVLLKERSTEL

[2] = Pharmacokinetic screening by oral cassette dosing in mice; format: in vivo; details: mouse; compared to 21i and 21j

Compound: NS(=O)(=O)c1ccc(-n2nc(CCNC(=O)Nc3cccc(C(F)(F)F)c3)cc2-c2ccccc2)cc1 [Compound 15, 4-(5-Phenyl-3-{2-[3-(3-trifluoromethyl-phenyl)-ureido]-ethyl}-pyrazol-1-yl)-benzenesulfonamide]
improvement of sEH inhibition (recombinant human sEH; compared to compound 11g): 3 fold

Compound: CS(=O)(=O)c1ccc(-n2nc(CNC(=O)NC3CCCCCC3)cc2-c2ccccc2)cc1 [Compound 11b, 1-Cycloheptyl-3-[1-(4-methanesulfonyl-phenyl)-5-phenyl-1H-pyrazol-3-ylmethyl]-urea]
improvement of sEH inhibition (recombinant human sEH; compared with compound 11a): 10 fold

Compound: NS(=O)(=O)c1ccc(-n2nc(CCCNC(=O)Nc3ccc(C(F)(F)F)cc3)cc2-c2ccccc2)cc1 [Compound 21i, 4-(5-Phenyl-3-{3-[3-(4-trifluoromethyl-phenyl)-ureido]-propyl}-pyrazol-1-yl)-benzenesulfonamide]
higher Cmax [1]: 2 fold | overt signs of behavioral changes or acute toxicity (Sprague-Dawley rats): no overt signs of any behavioral changes or acute observable symptoms of toxicity | acute toxicity on U937 cell line (U937 cell line): did not observe any acute toxicity

Now from value to molecule:

diminished sEH activity (recombinant human sEH; compared to compound 21b): 3 fold | diminished COX-2 activity (human recombinant COX-2): 3 fold
Compound: Cc1ccc(-c2cc(CCCNC(=O)Nc3cccc(C(F)(F)F)c3)nn2-c2ccc(S(N)(=O)=O)cc2)cc1 [Compound 21c]

improvement of sEH inhibition (recombinant human sEH; compared to compound 11g): 20 fold | decrease in AUC [2]: 8 fold | lower Cmax [2]: 15 fold
Compound: NS(=O)(=O)c1ccc(-n2nc(CCCNC(=O)Nc3cccc(C(F)(F)F)c3)cc2-c2ccccc2)cc1 [Compound 21b, 4-(5-Phenyl-3-{3-[3-(3-trifluoromethyl-phenyl)-ureido]-propyl}-pyrazol-1-yl)-benzenesulfonamide]
